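Values below derive from 48-hour exposures of cells grown in 96-well plates, with endpoints linearly interpolated between the two concentrations bracketing the appropriate inhibition level. Here, GI50 denotes the concentration required for 50% inhibition of growth. At the TGI there is no net growth.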
Experiments:
Experiment in all cases: NCI tumour cell line growth inhibition, 48 h
MOLT-4 leukemia = test system: MOLT-4 leukemia
HL-60(TB) leukemia = test system: HL-60(TB) leukemia
SK-OV-3 ovarian = test system: SK-OV-3 ovarian
MALME-3M melanoma = test system: MALME-3M melanoma
K-562 leukemia = test system: K-562 leukemia
LOX IMVI melanoma = test system: LOX IMVI melanoma
MDA-MB-231 breast = test system: MDA-MB-231 breast
786-0 renal = test system: 786-0 renal
A498 renal = test system: A498 renal
HS 578T breast = test system: HS 578T breast
SK-MEL-2 melanoma = test system: SK-MEL-2 melanoma
OVCAR-4 ovarian = test system: OVCAR-4 ovarian
SK-MEL-5 melanoma = test system: SK-MEL-5 melanoma
RPMI-8226 leukemia = test system: RPMI-8226 leukemia
UACC-257 melanoma = test system: UACC-257 melanoma
COLO 205 colon = test system: COLO 205 colon
U251 CNS = test system: U251 CNS

Fc1c[c-]c(-c2ccccn2)c(F)c1.Fc1c[c-]c(-c2ccccn2)c(F)c1.[Cl][Pt+].[Cl][Pt+].c1ccc([PH+](C[PH+](c2ccccc2)c2ccccc2)c2ccccc2)cc1
GI50 (MOLT-4 leukemia): 328 nM | GI50 (HL-60(TB) leukemia): 271 nM | TGI (HL-60(TB) leukemia): 813 nM | GI50 (SK-OV-3 ovarian): 330 nM | TGI (SK-OV-3 ovarian): 910 nM | GI50 (MALME-3M melanoma): 264 nM | TGI (MALME-3M melanoma): 758 nM | GI50 (K-562 leukemia): 95.5 nM | TGI (K-562 leukemia): > 100000 nM | GI50 (LOX IMVI melanoma): 380 nM | TGI (LOX IMVI melanoma): 1380 nM | GI50 (MDA-MB-231 breast): 139 nM | TGI (MDA-MB-231 breast): 373 nM | GI50 (786-0 renal): 184 nM | TGI (786-0 renal): 380 nM | GI50 (A498 renal): 164 nM | TGI (A498 renal): 461 nM | GI50 (HS 578T breast): 275 nM | TGI (HS 578T breast): 1170 nM | GI50 (SK-MEL-2 melanoma): 193 nM | TGI (SK-MEL-2 melanoma): 479 nM | GI50 (OVCAR-4 ovarian): 154 nM | TGI (OVCAR-4 ovarian): 977 nM | GI50 (SK-MEL-5 melanoma): 164 nM | TGI (SK-MEL-5 melanoma): 307 nM | GI50 (RPMI-8226 leukemia): 80 nM | TGI (RPMI-8226 leukemia): 466 nM | GI50 (UACC-257 melanoma): 235 nM | TGI (UACC-257 melanoma): 815 nM | GI50 (COLO 205 colon): 132 nM | TGI (COLO 205 colon): 362 nM | GI50 (U251 CNS): 63 nM | TGI (U251 CNS): 218 nM

— PubChem BioAssay (NCI)
